Assay results reported in patent US12552776B2, “Crystalline forms” (priority 2021, dated 2026).
Counter-ions that a name gives are not always drawn.

Columns and labels:
[1] = Hygroscopicity study by dynamic vapor sorption (DVS) analysis; format: physicochemical; settings: for weight gain %: 25° C., DVS sorption; for water absorbed (water adsorption): 90% RH at 25° C.
Procedure: Hygroscopicity study is performed using Surface Measurement Systems DVS-1. The sample is placed on a microbalance in the instrument and the weight change during the sorption at 25° C. is monitored. One of the programs consists of a sorption scan from 0 to 90% relative humidity (RH) at 5% RH increments and the sample is allowed to equilibrate for 360 minutes or until equilibration had been attained at each step.
The hygroscopicity study is performed by using dynamic vapor sorption (DVS) analysis.

[2] = format: physicochemical; settings: for other arising degradation products (not existing at Day 0) / remaining: 40° C./75% RH, storage period of 50 days, HPLC
Procedure: (§1) • HPLC data are obtained by Waters Alliance 2695 HPLC system with 2996 PDA detector using the following conditions; • Column: XBridge Phenyl (3.5 micrometers, 4.6×150 mm), • Eluent: acetonitrile/0.3% perchloric acid=35:65, • Detection: UV at 215 nm, • Flow rate: 1 mL/min, and • Column temperature: 40° C.
Solid-state stability study is performed using Nagano Science Constant temperature/humidity control chamber LH-20-11M, LH-21-11M, LTL-200D3CJ-14 or LTX-01. The samples are placed in the chamber and exposed under 25° C./60% RH, 40° C./75% RH and/or irradiated with the light such as D65 lamp or Xenon lamp. The crystalline form, thermal behavior, purity and/or weight change of the resultant sample after the exposure or irradiation are evaluated by XRPD, TG/DTA or DSC, HPLC, microbalance, respectively.

[3] = Photostability study, D65 lamp 4000 lux, 25° C./60% RH, HPLC; format: physicochemical
Procedure: as §1
Photostability samples are set in Nagano Science LTL-200D3CJ-14. The samples are placed in the chamber and stored under 25° C./60% RH condition and irradiated with a D65 lamp on light condition of 4000 lux. HCl-salt Crystalline Form A, HCl-salt Amorphous, and Free-base Amorphous samples store for 13, 26 and 50 days under the condition are analyzed by HPLC, respectively.
FIGS. 7, 8 and 9 show the data of degradation products except for the existing products at initial samples (Day 0), i.e., definitely arising peaks on the HPLC chart after storing initial samples under light exposure. The relative retention time (RRT) represents a ratio of retention time (RT) of a target peak to RT of the main peak. In case of the appearance of the peak at same RRT at least two consecutive storing periods of 13, 26 and 50 days, the arising peak is recognized as a degradation product.

[4] = Solubility study in buffers and water for injection; format: physicochemical; settings: aqueous buffer, thermodynamic from solid, buffers pH 1.06, 2.98, 4.44, 7.34, 7.40, 9.22 and WFI, 5 mg in 20 microL
Procedure: Each 5 mg of HCl-salt Crystalline Form A was weighed in a vial and each 20 microL of buffers (pH 1.06, 2.98, 4.44, 7.34, 7.40 and 9.22) and WFI (water for injection) was added to the vial. After the mixture was shaken with a vortex mixer and stood still for 15 min, no insoluble matter was observed. The mixture kept a clear solution after still standing for 2 days.

[5] = molecular target: T1, motilin receptor (Homo sapiens, UniProt O43193); experiment: Motilin receptor agonistic activity, reporter gene assay; format: cell-based; settings: cell expressing motilin receptor and reporter gene; compared with initial sample
T1 construct: 'the cell expressing motilin receptor and reporter gene'
Source text: Motilin receptor agonistic activity is identified by reporter gene assay using the cell expressing motilin receptor and reporter gene. The dose-response curve of assay sample is plotted and calculated to determine an agonistic activity (EC50).

[6] = Chiral analysis by HPLC; format: physicochemical; settings: CHIRALPAK IC HPLC
Procedure: • High Performance Liquid Chromatography (HPLC) measurement • HPLC data are obtained by Waters Alliance 2695 HPLC system with 2996 PDA detector using the following conditions; • Column: DAICEL CHIRALPAK IC (5 micrometers, 4.6×250 mm), • Eluent: n-hexane/ethanol/diethylamine=87/13/0.1 (v/v/v), • Detection: UV at 254 nm, • Flow rate: 1 mL/min, and • Column temperature: 40° C. • Data processing is performed with Empower 3 software supplied from Waters Corporation

T1 sequence (O43193 whole entry, species assumed): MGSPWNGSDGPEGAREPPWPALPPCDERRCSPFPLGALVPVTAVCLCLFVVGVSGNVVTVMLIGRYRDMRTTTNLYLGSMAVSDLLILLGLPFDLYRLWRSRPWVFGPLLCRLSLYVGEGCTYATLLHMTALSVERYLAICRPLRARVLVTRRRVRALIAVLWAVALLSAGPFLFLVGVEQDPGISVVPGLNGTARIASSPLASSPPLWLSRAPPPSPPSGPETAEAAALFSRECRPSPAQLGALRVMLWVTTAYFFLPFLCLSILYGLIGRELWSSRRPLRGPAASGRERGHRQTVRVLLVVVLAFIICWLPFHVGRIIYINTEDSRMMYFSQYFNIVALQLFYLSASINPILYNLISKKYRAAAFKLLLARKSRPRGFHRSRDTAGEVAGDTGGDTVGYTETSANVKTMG

## CC1(C)C(=O)N(C2CCN(C(=O)[C@H](CCc3ccccc3)NC(=O)[C@@H]3CCCNC3)CC2)c2ccccc21 [Free-base Amorphous, (R)—N—((S)-1-(4-(3,3-dimethyl-2-oxoindolin-1-yl)piperidin-1-yl)-1-oxo-4-phenylbutan-2-yl)piperidine-3-carboxamide]
[1]; 50% RH
  weight gain %: 5.2%
[1]; 60% RH
  weight gain %: 7.1%
[1]; 70% RH
  weight gain %: 9.5%
[1]; 80% RH
  weight gain %: 11.7%
[1]
  water absorbed (water adsorption): 17.9 wt %
[1]; 90% RH
  weight gain %: 17.9%
[2]
  other arising degradation products (not existing at Day 0): four
  remaining: 97.2%
[3]; 13 days
  arising degradation products (peaks) due to irradiating light: 2 peaks
[3]; 26 days
  arising degradation products (peaks) due to irradiating light: 4 peaks
[3]; 50 days
  arising degradation products (peaks) due to irradiating light: 4 peaks

## CC1(C)C(=O)N(C2CCN(C(=O)[C@H](CCc3ccccc3)NC(=O)[C@@H]3CCCNC3)CC2)c2ccccc21.Cl [HCl-salt Amorphous, (R)—N—((S)-1-(4-(3,3-dimethyl-2-oxoindolin-1-yl)piperidin-1-yl)-1-oxo-4-phenylbutan-2-yl)piperidine-3-carboxamide amorphous solid of hydrochloride]
[1]; 50% RH, hydrochloride
  weight gain %: 5.2%
[1]; 60% RH, hydrochloride
  weight gain %: 7.6%
[1]; 70% RH, hydrochloride
  weight gain %: 9.4%
[1]; 80% RH, hydrochloride
  weight gain %: 13.3%
[1]; hydrochloride
  water absorbed (water adsorption): 20.5 wt %
[1]; 90% RH, hydrochloride
  weight gain %: 20.5%
[2]
  other arising degradation products (not existing at Day 0): one
  remaining: 97.0%
[3]; 13 days
  arising degradation products (peaks) due to irradiating light: 2 peaks
[3]; 26 days
  arising degradation products (peaks) due to irradiating light: 5 peaks
[3]; 50 days
  arising degradation products (peaks) due to irradiating light: 5 peaks

## CC1(C)C(=O)N(C2CCN(C(=O)[C@H](CCc3ccccc3)NC(=O)[C@@H]3CCCNC3)CC2)c2ccccc21 [HCl-salt Crystalline Form A, (R)—N—((S)-1-(4-(3,3-dimethyl-2-oxoindolin-1-yl)piperidin-1-yl)-1-oxo-4-phenylbutan-2-yl)piperidine-3-carboxamide hydrochloride Crystalline Form A]
[1]; 50% RH
  weight gain %: 0.0%
[1]; 60% RH
  weight gain %: 0.2%
[1]; 70% RH
  weight gain %: 0.4%
[1]; 80% RH
  weight gain %: 1.6%
[1]
  water absorbed (water adsorption): less than or equal to 3.4 wt %
[1]; 90% RH
  weight gain %: 3.4%
[2]
  other arising degradation products (not existing at Day 0): no other arising degradation products
[2]; during the storage period
  changes in appearance, XRPD, IR (KBr), m.p. (DSC onset) and potency: no significant changes
[3]; storing periods of 13, 26 and 50 days
  arising degradation products due to irradiating light: no arising degradation products
[4]
  solubility at 15 min: > 250 mg/mL
[5]
  agonistic activity (EC50): high potency consistent with initial sample
[6]
  stability in chiral analysis: preferable stability

## CC1(C)C(=O)N(C2CCN(C(=O)[C@H](CCc3ccccc3)NC(=O)[C@@H]3CCCNC3)CC2)c2ccccc21.Cl [HCl-salt Crystalline Form B, (R)—N—((S)-1-(4-(3,3-dimethyl-2-oxoindolin-1-yl)piperidin-1-yl)-1-oxo-4-phenylbutan-2-yl)piperidine-3-carboxamide hydrochloride Crystalline Form B]
[1]; 50% RH
  weight gain %: 0.0%
[1]; 60% RH
  weight gain %: 0.0%
[1]; 70% RH
  weight gain %: 0.0%
[1]; 80% RH
  weight gain %: 4.9%
[1]
  water absorbed (water adsorption): ≤ 8.6 wt %
[1]; 90% RH
  weight gain %: 8.6%
[6]
  stability in chiral analysis: preferable stability

## CC1(C)C(=O)N(C2CCN(C(=O)[C@H](CCc3ccccc3)NC(=O)[C@@H]3CCCNC3)CC2)c2ccccc21.O=C(O)CNC(=O)c1ccccc1 [hippurate salt crystalline, (R)—N—((S)-1-(4-(3,3-dimethyl-2-oxoindolin-1-yl)piperidin-1-yl)-1-oxo-4-phenylbutan-2-yl)piperidine-3-carboxamide hippuric acid salt (hippurate salt)]
[1]; 90% RH
  observation in hygroscopicity study: partial deliquescence is observed
[1]
  water absorbed (water adsorption): 16.0 wt %

## CC1(C)C(=O)N(C2CCN(C(=O)[C@H](CCc3ccccc3)NC(=O)[C@@H]3CCCNC3)CC2)c2ccccc21.CS(=O)(=O)O [mesylate salt crystalline, (R)—N—((S)-1-(4-(3,3-dimethyl-2-oxoindolin-1-yl)piperidin-1-yl)-1-oxo-4-phenylbutan-2-yl)piperidine-3-carboxamide methanesulfonic acid salt (mesylate salt)]
[1]; 60% RH
  water adsorption: 3.7 wt %
[1]
  water absorbed (water adsorption): 16.9 wt %
